The conditions of assay [1]: in combination with Dipyridamol; J. Clin. Invest. 75, 1591-1599 (1985); cited from earlier work.
Assay [2] deals with Plättchenaggregation im Gesamtblut. The experiment in a line: collagen-induced platelet aggregation in pooled rat whole blood, substances added in vitro. The conditions noted are these: collagen 7 µg/ml, read-out: % Hemmung. The format is cell-based, Ratten. The method, then: Ratten mit einem durchschnittlichen Körpergewicht von 250 bis 300 g wurden mit 60 mg/kg Pentobarbital narkotisiert. Aus der abdominalen Arterie wurde 4,5 ml Blut entnommen und in 0,5 ml Zitrat (3,8 %) gegeben. Das Blut von 3 Ratten wurde jeweils gepoolt und Proben hiervon, die Lösungsmittel, die Einzelsubstanzen oder die zu untersuchende Kombination enthielten, wurden 10 Minuten lang rotiert. Von diesen Proben wurden jeweils 200 µl in Aggregometer-Küvetten gegeben und 5 Minuten lang bei 37°C gerührt. Anschließend wurden 10 µl Collagenlösung (Endkonzentration: 7 µg/ml) zugegeben und zu verschiedenen Zeiten jeweils 10 µl Blut entnommen, welches anschließend mit Formaldehyd fixiert wurde. In diesen Proben wurden die nicht aggregierten Plättchen mit einem Ultra-Flo 100 (Becton-Dickinson) bestimmt. Die nachfolgende Tabelle enthält die gefundenen Werte: […]

Assay [3] has the same test system. The assay can be described thus: collagen-induced platelet aggregation in whole blood of rats after administration of the substances (ex vivo). Details: species or system Ratten. The conditions noted are these: rat, versus vehicle controls. Here is the method:
Ratten mit einem durchschnittlichen Körpergewicht von 250 bis 300 g wurden mit 60 mg/kg Pentobarbital narkotisiert. Aus der abdominalen Arterie wurde 4,5 ml Blut entnommen und in 0,5 ml Zitrat (3,8 %) gegeben. Das Blut von 3 Ratten wurde jeweils gepoolt und Proben hiervon, die Lösungsmittel, die Einzelsubstanzen oder die zu untersuchende Kombination enthielten, wurden 10 Minuten lang rotiert. Von diesen Proben wurden jeweils 200 µl in Aggregometer-Küvetten gegeben und 5 Minuten lang bei 37°C gerührt. Anschließend wurden 10 µl Collagenlösung (Endkonzentration: 7 µg/ml) zugegeben und zu verschiedenen Zeiten jeweils 10 µl Blut entnommen, welches anschließend mit Formaldehyd fixiert wurde. In diesen Proben wurden die nicht aggregierten Plättchen mit einem Ultra-Flo 100 (Becton-Dickinson) bestimmt. Die nachfolgende Tabelle enthält die gefundenen Werte:
Desweiteren wurde die synergistische Wirkung auf die Plättchenaggregation im Gesamtblut für die Kombination, bestehen aus Pimobendan (Substanz C) und Substanz B in Vergleich zu den Einzelverbindungen wie folgt untersucht: Ratten mit einem durchschnittlichen Körpergewicht von 250 bis 300 g Körpergewicht wurden 5 mg/kg Substanz C und 0,5 mg/kg Substanz B oder die Kombination im Vergleich zu Kontrollen, welche nur das Vehikel appliziert bekamen, gegeben. […]

Consider `O=C(O)c1ccc(OCCn2ccnc2)cc1` [Dazoxiben, 4-[2-(1H-Imidazol-1-yl)-ethoxy]benzoesäure], for which the “Einfluß auf die antithrombotische Wirkung des PDE-Hemmers” value in assay [1] is reported as “keinen verbessernden Einfluß”.

Turning to `CCOc1nc(N2CCNCC2)nc(N2CC[S+]([O-])CC2)c1[N+](=O)[O-]` [Substanz A, 6-Äthoxy-5-nitro-4-(1-oxidothiomorpholino)-2-piperazino-pyrimidin], the inhibition at 0.03 µM in assay [2] (0,03 µMol/l) amounted to 4%.

With `O=C(O)CCCc1ccc2c(c1)CC(NS(=O)(=O)c1ccc(Cl)cc1)C2` (stereo not drawn) [Substanz B, 4-[2-p-Chlorbenzolsulfonamido-indan-5-yl]-buttersäure], in assay [2] (0,10 µMol/l), the inhibition at 0.1 µM was 3%. In assay [2] (0,30 µMol/l), the inhibition at 0.3 µM came to 19%. Further, the “% Hemmung” value in assay [3] (dose 0,5 mg/kg) is 59%.

For `COc1ccc(-c2nc3ccc(C4=NNC(=O)CC4C)cc3[nH]2)cc1` (stereo not drawn) [Substanz C, 2-(4-Methoxy-phenyl)-5(6)-(5-methyl-3-oxo-4,5-dihydro-2H-6-pyridazinyl)-benzimidazol, reference compound], in assay [3] (dose 5,0 mg/kg), the “% Hemmung” value is -1%.

The record behind these values is EP0306846A2, “Synergistic combination comprising a phosphodiesterase inhibitor and a thromboxane-A2 antagonist, and its use or preparation” (Dr. Karl Thomae GmbH, priority 1987, dated 1989).
